In ChEMBL document CHEMBL5154820 (Eur J Med Chem, 2022):

What was measured:
HeLa [1] = assay: Induction of apoptosis in human HeLa cells assessed as viable cells at 3 nM measured after 24 hrs by Annexin V-FITC/7-AAD staining based flow cytometric analysis (reference value: 75.5%); type: functional; details: read-out: Activity
Bos taurus = species on record: Bos taurus; assay: Inhibition of calf brain tubulin polymerization upto 50 uM measured after 40 mins by spectrophotometric analysis; details: DDE = dose-dependent effect
HeLa [2] = assay: Induction of apoptosis in human HeLa cells assessed as early apoptotic cells at 6 nM measured after 24 hrs by Annexin V-FITC/7-AAD staining based flow cytometric analysis (reference value: 18.8%); type: functional
HeLa [3] = assay: Induction of apoptosis in human HeLa cells assessed as late apoptotic cells at 6 nM measured after 24 hrs by Annexin V-FITC/7-AAD staining based flow cytometric analysis (reference value: 5.22%); type: functional
HUVEC = assay: Vascular disruptive activity against HUVEC-formed vascular tube assessed as damage of vascular tube on matrigel substratum at 0.2 uM measured after 2 hrs; type: functional, Homo sapiens
HeLa [4] = assay: Induction of cell cycle arrest in human HeLa cells assessed as 4N cells at 3 nM measured after 24 hrs by propidium iodide staining based flow cytometric analysis analysis ( Rvb = 17.1%); type: functional
[5] = Apparent clearance during terminal phase in C57 nude mouse at 30 mg/kg, ip measured at 0.083 to 24 hrs by LC/MS/MS analysis; type: ADME, organism-based; details: in vivo, time 0.083-24 hrs, read-out: CLz/F (converted)
HeLa [6] = assay: Induction of apoptosis in human HeLa cells assessed as early apoptotic cells at 0.1 uM measured after 24 hrs by Annexin V-FITC/7-AAD staining based flow cytometric analysis (reference value: 20.8%); type: functional
HeLa [7] = assay: Induction of cell cycle arrest in human HeLa cells assessed as < 2N cells at 0.1 uM measured after 24 hrs by propidium iodide staining based flow cytometric analysis analysis ( Rvb = 7.07%); type: functional
[8] = Resistant factor, ratio of IC50 for antiproliferative activity against human HeLa/DDP cells to IC50 for human HeLa cells; type: functional
HeLa [9] = assay: Induction of cell cycle arrest in human HeLa cells assessed as 2N cells at 0.1 uM measured after 24 hrs by propidium iodide staining based flow cytometric analysis analysis ( Rvb = 47.4%); type: functional
[10] = Nephrotoxicity in BABL/c mouse assessed as increased urea nitrogen level at 60 mg/kg, ip administered daily for 21 days relative to vehicle; type: toxicity, organism-based; details: in vivo, 504 h, time 21 day
[11] = Acute toxicity against ICR mouse assessed as focal necrosis in liver at 1000 mg/kg, ip measured after 14 days by H and E staining method; type: organism-based; details: in vivo, 336 h, time 14 day
HeLa [12] = assay: Induction of cell cycle arrest in human HeLa cells assessed as < 2N cells at 0.4 uM measured after 24 hrs by propidium iodide staining based flow cytometric analysis analysis ( Rvb = 7.07%); type: functional
[13] = Half life in C57 nude mouse at 30 mg/kg, ip measured at 0.083 to 24 hrs by LC/MS/MS analysis; type: ADME, organism-based; details: in vivo, time 0.083-24 hrs
HeLa [14] = assay: Inhibition of colony formation in human HeLa cells at 100 nM and treated for every 48 hrs with fresh medium measured after 14 days by crystal violet staining method; type: functional; parameters: scale not given: the % may be the effect or the level left; details: time 14 day
Tubulin (Sus scrofa) = Tubulin (Sus scrofa) (UniProt P02554+P02550); assay: Inhibition of pig brain tubulin polymerization at 6 uM by spectrophotometer analysis relative to control; parameters: scale not given: the % may be the effect or the level left; details: Sus scrofa domesticus
HeLa [15] = assay: Induction of apoptosis in human HeLa cells assessed as necrotic cells at 0.4 uM measured after 24 hrs by Annexin V-FITC/7-AAD staining based flow cytometric analysis (reference value: 0.56%); type: functional
[16] = AUC(0 to t) in C57 nude mouse at 30 mg/kg, ip measured at 0.083 to 24 hrs by LC/MS/MS analysis; type: ADME, organism-based; parameters: dose 30 mg/kg, time upper 24 hrs, time lower 0.083 hrs, route ip; details: in vivo
[17] = Toxicity against BABL/c mouse assessed as morphological changes in liver at 30 to 60 mg/kg, ip administered daily for 21 days by H and E staining method; type: organism-based; details: in vivo, 504 h, dose 30-60 mg/kg, time 21 day
[18] = biological target: Tubulin beta (Homo sapiens) (UniProt P68371+Q9H4B7+Q13509+P04350+Q3ZCM7+P07437+Q13885+Q9BVA1+Q9BUF5+A6NNZ2); assay: Binding affinity to beta-tubulin colchicine binding site in human HeLa cells assessed as decrease of adduct formation by measuring gray value measured at 25 uM incubated for 2 hrs followed by addition of EBI measured after 1.5 hrs by EBI competition based Western blotting analysis; type: cell-based; details: time 3.5 hrs

Chain of Tubulin (Sus scrofa) (P02550 whole entry, looked up): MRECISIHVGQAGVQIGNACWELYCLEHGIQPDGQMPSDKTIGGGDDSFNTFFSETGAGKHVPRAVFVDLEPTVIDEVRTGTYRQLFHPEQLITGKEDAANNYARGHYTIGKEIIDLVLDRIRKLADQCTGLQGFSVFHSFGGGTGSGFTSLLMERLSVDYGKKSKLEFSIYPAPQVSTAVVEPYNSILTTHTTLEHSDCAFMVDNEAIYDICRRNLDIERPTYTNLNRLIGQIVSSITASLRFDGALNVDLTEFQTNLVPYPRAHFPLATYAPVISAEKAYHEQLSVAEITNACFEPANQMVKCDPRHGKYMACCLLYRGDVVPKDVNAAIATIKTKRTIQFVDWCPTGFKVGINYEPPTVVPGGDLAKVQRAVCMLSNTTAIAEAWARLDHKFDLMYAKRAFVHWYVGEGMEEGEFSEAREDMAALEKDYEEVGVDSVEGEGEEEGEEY
Chain of Tubulin (Sus scrofa) (P02554 whole entry, looked up): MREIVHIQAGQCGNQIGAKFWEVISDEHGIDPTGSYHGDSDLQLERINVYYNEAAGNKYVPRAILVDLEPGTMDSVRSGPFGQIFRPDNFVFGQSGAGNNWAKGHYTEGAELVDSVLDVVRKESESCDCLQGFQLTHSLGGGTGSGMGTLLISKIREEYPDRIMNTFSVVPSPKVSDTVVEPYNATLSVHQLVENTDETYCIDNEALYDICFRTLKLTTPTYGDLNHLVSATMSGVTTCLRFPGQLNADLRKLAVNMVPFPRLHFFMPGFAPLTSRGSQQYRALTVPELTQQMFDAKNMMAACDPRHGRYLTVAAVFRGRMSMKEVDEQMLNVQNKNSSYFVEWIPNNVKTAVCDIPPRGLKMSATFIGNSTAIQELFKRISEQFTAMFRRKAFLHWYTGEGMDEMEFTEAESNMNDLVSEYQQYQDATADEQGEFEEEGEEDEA

Q: For COc1ccc(/C=C\c2cc(OC)c(OC)c(OC)c2)cc1O [COMBRETASTATIN A4], which viability at 0.003 µM (HeLa [1]) is on record?
A: 44.7%

Q: And the inhibition (Bos taurus)?
A: Dde

Q: And the Activity (HeLa [2])?
A: 74.2%

Q: What about the Activity (HeLa [3]) of the same compound?
A: 5.94%

Q: And the Activity (HUVEC)?
A: 100%

Q: What about the Activity (HeLa [4]) of the same compound?
A: 28.2%

Q: Which results are given for CCOc1ccc(-c2cncnc2-c2cc(OC)c(OC)c(OC)c2)cc1Cl?
A: CL/F [5]: 84.2 mL/min/kg; Activity (HeLa [6]): 35.9%; Activity (HeLa [7]): 7.04%; Ratio IC50 [8]: 79.2; Activity (HeLa [9]): 22.7%; Activity [10]: 1.3%; Activity [11]: Non-Toxic; Activity (HeLa [12]): 0.26%; half-life [13]: 1.56 h; Activity (HeLa [14]): 100%; Activity (Tubulin (Sus scrofa)): 54%; Activity (HeLa [15]): 0.11%; AUC(0-t) [16]: 5610 ng·h/mL; Activity [17]: Non-Toxic; Activity [18]: 1.17
